Laboratory results from patent US11873298B2, “Compounds and uses thereof” (JANSSEN PHARMACEUTICA NV, priority 2017, dated 2024).

Assays:
SCD1 = target: T1, SCD1 (Homo sapiens, UniProt O00767); assay: Growth inhibition of humanized yeast strain expressing SCD1 as sole desaturase; type: cell-based
T1 construct: host or cells: S. cerevisiae ole1Δ strain (W303 pdr1Δ pdr3Δ background), plasmid pRS316 with TDH3 promoter and CYC1 terminator
T1 sequence (O00767 1-359): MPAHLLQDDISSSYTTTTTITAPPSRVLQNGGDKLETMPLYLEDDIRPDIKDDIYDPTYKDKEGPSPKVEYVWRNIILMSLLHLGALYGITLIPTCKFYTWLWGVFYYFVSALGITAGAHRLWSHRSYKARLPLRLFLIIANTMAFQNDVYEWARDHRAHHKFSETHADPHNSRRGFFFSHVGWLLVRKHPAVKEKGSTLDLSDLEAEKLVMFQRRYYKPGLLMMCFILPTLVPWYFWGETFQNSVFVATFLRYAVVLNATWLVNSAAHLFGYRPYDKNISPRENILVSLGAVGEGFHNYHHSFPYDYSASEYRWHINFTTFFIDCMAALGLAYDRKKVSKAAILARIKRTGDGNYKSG
How it was run: (§1)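 OD600 growth read-out. ole1Δ yeast, pdr1Δ pdr3Δ, with Ole1/SCD1/SCD5 on a plasmid; SX-Ura media throughout; 2× cell density 0.02 in CSM-Galactose; DMSO compound dilutions; humidified 30° C.; Ole1 stopped at 24 h, SCD1/SCD5 at 40 h.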

SCD5 = target: T2, SCD5 (Homo sapiens, UniProt Q86SK9); assay: Growth inhibition of humanized yeast strain expressing SCD5 as sole desaturase; type: cell-based
T2 construct: host or cells: S. cerevisiae ole1Δ strain (W303 pdr1Δ pdr3Δ background), plasmid pRS316 with TDH3 promoter and CYC1 terminator
T2 sequence (Q86SK9 1-330): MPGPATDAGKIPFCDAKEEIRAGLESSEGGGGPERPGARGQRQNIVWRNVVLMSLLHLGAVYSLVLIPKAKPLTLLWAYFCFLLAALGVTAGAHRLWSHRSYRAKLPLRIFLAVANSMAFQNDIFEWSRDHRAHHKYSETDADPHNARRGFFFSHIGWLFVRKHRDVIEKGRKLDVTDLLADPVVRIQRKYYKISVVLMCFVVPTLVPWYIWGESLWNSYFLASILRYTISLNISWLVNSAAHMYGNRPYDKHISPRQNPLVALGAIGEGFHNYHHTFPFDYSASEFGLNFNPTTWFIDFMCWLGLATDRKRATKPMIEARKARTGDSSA
How it was run: as §1

[1] = growth inhibition of humanized yeast strain expressing human SCD1
[2] = growth inhibition of humanized yeast strain expressing human SCD5
[3] = humanized yeast strain expressing SCD1
[4] = humanized yeast strain expressing SCD5

| Compound | IC50 (SCD1; humanized yeast strain, 40 h) | IC50 (SCD5; humanized yeast strain, 40 h) | further results |
| --- | --- | --- | --- |
| C[C@@H]1C[C@@H](c2noc(-c3ccc4cnn(C5COC5)c4c3)n2)CCN1C(=O)C1CCC1 [Compound 1066] | > 45 µM | 0.000681 µM | – |
| C[C@H](NC(=O)[C@H]1[C@@H]2CN(C(=O)OC(C)(C)C)C[C@@H]21)c1ccccc1 [Compound 769] | > 45 µM | > 45 µM | – |
| CC1(OC(=O)N2CCC(c3nc(-c4cccc(C5CCOC5)c4)no3)CC2)CC1 (stereo not shown) [Compound 846] | > 45 µM | 0.04 µM | – |
| c1cc2cnn(C3COC3)c2cc1-c1nc(N2CCNCC2)no1 [Compound 751] | > 45 µM | > 45 µM | – |
| CC(C)n1ncc2ccc(-c3nc(C4CCN(CC5CC5)C(=O)C4)no3)cc21 (stereo not shown) [Compound 1146] | > 45 µM | 0.38 µM | – |
| CC(C)C(=O)N1CCC(c2noc(-c3ccc4cnn(C5COC5)c4c3F)n2)CC1 [Compound 1112] | > 45 µM | 0.193 µM | – |
| O=C(N1CCC(c2noc(-c3ccnc(C4CCOC4)c3)n2)CC1)C1(C(F)(F)F)CCC1 (stereo not shown) [Compound 1176] | > 45 µM | 0.14 µM | – |
| CC(C)(C)OC(=O)N1CCC(c2noc(-c3ccnc(C4CCCO4)c3)n2)CC1 (stereo not shown) [Compound 1003] | > 45 µM | 0.457 µM | – |
| CC(C)(C)OC(=O)N1C[C@@H]2[C@H](C1)[C@H]2C(=O)NCc1cccc(C#N)c1 [Compound 772] | > 45 µM | > 45 µM | – |
| CC1(OC(=O)N2CCC(c3noc(-c4ccnc(NC5COC5)c4)n3)CC2)CC1 [Compound 1151] | > 45 µM | 1.09 µM | – |
| C[C@@H]1C[C@@H](c2noc(-c3ccc4cnn(C5COC5)c4c3)n2)CCN1C(=O)OC(C)(C)C [Compound 1019] | 12.2 µM | 0.01 µM | – |
| CC1(C(=O)N2CCN(c3nc(-c4ccc5cnn(C6COC6)c5c4)no3)CC2)CCCO1 (stereo not shown) [Compound 916] | 1.96 µM | 0.01 µM | – |
| CC1(OC(=O)N2CCC(c3noc(-c4ccnc(C5CCOC5)c4)n3)CC2)CC1 (stereo not shown) [Compound 1016] | > 45 µM | 0.0614 µM | – |
| CO[C@H]1C[C@@H](n2ncc3ccc(-c4noc(C5CCN(C(=O)OC(C)(C)C)CC5)n4)cc32)C1 [Compound 867] | > 45 µM | 1.92 µM | – |
| CNC(=O)O[C@H]1CC[C@@H](c2nc(-c3ccc4cnn(C(C)C)c4c3)no2)CC1 [Compound 647] | – | – | IC50 (SCD1; [1]): > 45 µM; IC50 (SCD5; [2]): 9.37 µM |
| CC(C)(C)OC(=O)N1CCN(c2noc(-c3ccnc(OC4COC4)c3)n2)CC1 [Compound 977] | > 45 µM | 5.94 µM | – |
| O=C(N1CCC(c2noc(-c3ccc4oc(=O)n(C5COC5)c4c3)n2)CC1)C1(F)CC1 [Compound 1131] | > 45 µM | 0.207 µM | – |
| CC(C)(C)OC(=O)N1CC=C(c2cnc(-c3ccc4cnn(C5COC5)c4c3)nc2)CC1 [Compound 984] | > 45 µM | > 45 µM | – |
| COC(=O)N1CCN(c2nc(-c3cccc(C4CCOC4)c3)no2)CC1 (stereo not shown) [Compound 837] | > 45 µM | 12.5 µM | – |
| CC(C)n1ncc2ccc(-c3noc(C4CCN(C(=O)CNC(=O)c5cccc(Cl)c5)CC4(F)F)n3)cc21 (stereo not shown) [Compound 522] | – | – | IC50 (SCD1; [3]): > 45 µM; IC50 (SCD5; [4]): > 45 µM |
| CC(C)n1ncc2ccc(-c3noc(C4CCN(S(=O)(=O)C5CCCCC5)CC4)n3)cc21 [Compound 516] | – | – | IC50 (SCD1; [3]): > 45 µM; IC50 (SCD5; [4]): > 45 µM |
| CC(C)n1ncc2ccc(-c3noc(N4CCN(C(=O)c5ccccc5Cl)CC4)n3)cc21 [Compound 364] | – | – | SCD1 % Max Inhibition (SCD1; [3]): 70.82%; IC50 (SCD5; [4]): > 45 µM; SCD5 % Max Inhibition (SCD5; [4]): 2.22% |
| O=C(N1CCC(c2noc(-c3ccc4cnn(C5CCOC5)c4c3)n2)CC1)C1(F)CCC1 (stereo not shown) [Compound 1028] | 0.953 µM | 0.01 µM | – |
| O=C(CC1CC1)N1CCC(c2noc(-c3ccnc(C4CCOC4)c3)n2)CC1 (stereo not shown) [Compound 1100] | > 45 µM | 0.738 µM | – |

| Compound | IC50 (SCD1; humanized yeast strain, 40 h) | IC50 (SCD5; humanized yeast strain, 40 h) | further results |
| --- | --- | --- | --- |
| CC(C)C(=O)N1CCC(c2noc(-c3ccc4oc(=O)n(C5COC5)c4c3)n2)CC1 [Compound 1126] | > 45 µM | 2.74 µM | – |
| CC(C)(C)OC(=O)N1CCN(c2noc(-c3ccc4c(c3)C3(CCC3)OC4)n2)CC1 [Compound 831] | > 45 µM | 1.2 µM | – |
| CC(C)(C)OC(=O)N1CCC(F)(c2noc(-c3ccc4cnn(C5COC5)c4c3)n2)CC1 [Compound 883] | > 45 µM | 1 µM | – |
| COC(=O)N1CCC(c2nc(-c3ccc4cn[nH]c4c3)no2)CC1 [Compound 936] | > 45 µM | 3.45 µM | – |
| COC(=O)N1CCC(c2noc(-c3ccc4oc(=O)n(C5COC5)c4c3)n2)CC1 [Compound 1031] | > 45 µM | 1.13 µM | – |
| COC1CCC(S(=O)(=O)N2CCC(c3nc(-c4ccc5cnn(C(C)C)c5c4)no3)CC2)CC1 (stereo not shown) [Compound 675] | – | – | IC50 (SCD1; [1]): > 45 µM; IC50 (SCD5; [2]): 0.01 µM |
| CC(C)n1ncc2ccc(-c3nc(N4CCC5(CCO5)CC4)no3)cc21 [Compound 762] | > 45 µM | 5.25 µM | – |
| CC(C)(C)OC(=O)N1CCC(c2nsc(-c3ccc4cnn(C5COC5)c4c3)n2)CC1 [Compound 780] | > 45 µM | 0.027 µM | – |
| COC(=O)N1CCC(c2nc(-c3ccc4cnn(C5CNC5)c4c3)no2)CC1 [Compound 950] | > 45 µM | > 45 µM | – |
| COC(=O)N1CCN(c2noc(-c3ccc4cnn(C5CNC5)c4c3)n2)CC1 [Compound 946] | > 45 µM | 4.11 µM | – |
| COC(=O)N1CCC(c2noc(-c3ccc4ccn(C(C)C)c4c3)n2)CC1 [Compound 1037] | 10.2 µM | 0.457 µM | – |
| COC(=O)N1CCC(c2noc(-c3cc(C#N)c4cnn(C5COC5)c4c3)n2)CC1 [Compound 1085] | > 45 µM | 0.532 µM | – |
| CC(C)c1noc2ccc(-c3noc(C4CCN(C(=O)C5CCC5)CC4)n3)cc12 [Compound 968] | > 45 µM | 2.83 µM | – |
| CC(C)(C)OC(=O)N1CCC(c2nc(-c3ccc4cnn([C@H]5C[C@](C)(O)C5)c4c3)no2)CC1 [Compound 821] | > 45 µM | 5.06 µM | – |
| CC(C)C(=O)N1CCC(c2noc(-c3ccnc(NC4COC4)c3)n2)CC1 [Compound 1153] | 1.94 µM | 0.84 µM | – |
| CC(C)(C)OC(=O)N1CCC(c2noc(-c3ccc(=O)n(C4CCOC4)c3)n2)CC1 (stereo not shown) [Compound 1114] | > 45 µM | 0.116 µM | – |
| CC(C)(C)OC(=O)N1CCC(c2cc(-c3ccc4cnn(C5COC5)c4c3)on2)CC1 [Compound 1026] | 3.98 µM | 0.2 µM | – |
| CC(C)(C)OC(=O)N1C[C@@H]2[C@H](C1)[C@H]2C(=O)NCc1ccncc1 [Compound 768] | > 45 µM | > 45 µM | – |
| CC(C)(C)OC(=O)N1C[C@@H]2[C@H](C1)[C@H]2C(=O)NCc1ccc(C#N)cc1 [Compound 770] | > 45 µM | > 45 µM | – |
| COC(=O)N1CCC(c2nc(-c3ccc4cnc(C5COC5)n4c3)no2)CC1 [Compound 900] | > 45 µM | 13.1 µM | – |
| CCC(=O)N1CCC(c2nc(-c3ccc4onc(C(C)C)c4c3)no2)CC1 [Compound 940] | > 45 µM | 31.2 µM | – |
| COC1(C(=O)N2CCN(c3noc(-c4ccc5cnn(C6COC6)c5c4)n3)CC2)CC1 [Compound 884] | > 45 µM | 0.01 µM | – |
| CC(C)C(=O)N1CCC(c2noc(N3CCc4nn(C5COC5)cc4C3)n2)CC1 [Compound 1195] | > 45 µM | > 45 µM | – |
| Clc1cnc2n1CCN(c1noc(-c3ccc4cnn(C5CNC5)c4c3)n1)C2 [Compound 934] | > 45 µM | 0.01 µM | – |
